Test results from patent US20140171417A1, “TRICYCLIC COMPOUNDS” (NOVARTIS AG, priority 2012, published 2014).

Molecular target: T1, CFTR (Homo sapiens, UniProt P13569)
T1 construct: expressed in transfected cells
Assay: IonWorks Quattro assay (CFTR Inhibitor Assay), whole-cell planar patch clamp
Assay type: cell-based
Details: inward current (−100 mV); CHO cells stably expressing WT-CFTR; CFTR activated by 10 μM forskolin; test compound incubated 10 min

T1 sequence (P13569 whole entry): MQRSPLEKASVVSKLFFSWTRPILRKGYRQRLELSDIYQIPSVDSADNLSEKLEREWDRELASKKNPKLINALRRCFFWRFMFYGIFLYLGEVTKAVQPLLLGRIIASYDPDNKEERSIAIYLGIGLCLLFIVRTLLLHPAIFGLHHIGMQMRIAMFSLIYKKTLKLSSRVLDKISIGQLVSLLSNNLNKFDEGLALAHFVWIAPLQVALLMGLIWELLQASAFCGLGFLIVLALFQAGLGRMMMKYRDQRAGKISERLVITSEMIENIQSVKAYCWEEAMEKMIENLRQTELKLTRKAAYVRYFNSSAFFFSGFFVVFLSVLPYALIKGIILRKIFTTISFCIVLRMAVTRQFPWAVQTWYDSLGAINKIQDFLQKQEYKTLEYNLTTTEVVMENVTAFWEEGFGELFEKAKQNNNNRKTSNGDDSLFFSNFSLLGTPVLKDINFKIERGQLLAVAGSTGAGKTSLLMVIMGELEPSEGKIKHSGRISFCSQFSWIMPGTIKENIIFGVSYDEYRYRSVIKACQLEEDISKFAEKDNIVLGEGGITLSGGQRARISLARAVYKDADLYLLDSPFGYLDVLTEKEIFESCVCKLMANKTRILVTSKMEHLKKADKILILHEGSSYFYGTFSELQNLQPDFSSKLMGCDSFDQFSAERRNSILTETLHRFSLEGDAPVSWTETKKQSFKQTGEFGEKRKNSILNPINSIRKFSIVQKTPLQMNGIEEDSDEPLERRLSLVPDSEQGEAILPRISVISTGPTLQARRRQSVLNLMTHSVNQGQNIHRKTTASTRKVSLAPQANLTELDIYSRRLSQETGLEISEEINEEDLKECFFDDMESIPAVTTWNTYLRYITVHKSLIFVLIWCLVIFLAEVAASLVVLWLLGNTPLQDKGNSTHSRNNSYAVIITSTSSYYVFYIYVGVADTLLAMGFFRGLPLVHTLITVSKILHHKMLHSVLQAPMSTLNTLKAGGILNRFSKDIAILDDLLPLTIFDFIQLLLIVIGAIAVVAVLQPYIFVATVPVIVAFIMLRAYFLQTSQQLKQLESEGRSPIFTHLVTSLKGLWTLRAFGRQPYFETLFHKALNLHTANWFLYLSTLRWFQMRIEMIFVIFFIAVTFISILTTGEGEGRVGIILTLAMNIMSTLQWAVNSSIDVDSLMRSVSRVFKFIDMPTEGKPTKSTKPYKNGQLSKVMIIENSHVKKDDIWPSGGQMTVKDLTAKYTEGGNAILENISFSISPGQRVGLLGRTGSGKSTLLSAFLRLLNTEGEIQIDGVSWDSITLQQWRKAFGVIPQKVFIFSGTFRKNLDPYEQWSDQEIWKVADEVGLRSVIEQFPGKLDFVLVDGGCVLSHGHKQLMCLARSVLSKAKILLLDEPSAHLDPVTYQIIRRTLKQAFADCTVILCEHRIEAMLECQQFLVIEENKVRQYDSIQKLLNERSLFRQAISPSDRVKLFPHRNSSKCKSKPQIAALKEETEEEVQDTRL

Structure (SMILES)	IC50
Cn1c(=O)c2c(-c3cccc(C#N)c3)n3c(c2n(C)c1=O)C(c1nc(Cl)cs1)CCCC3 (single isomer, unassigned) [Example 31, 3-(11-(4-chlorothiazol-2-yl)-1,3-dimethyl-2,4-dioxo-2,3,4,7,8,9,10,11-octahydro-1H-pyrimido[4′,5′:3,4]pyrrolo[1,2-a]azepin-5-yl)benzonitrile]	1.45 µM
Cn1c(=O)c2c(-c3ccccc3)n3c(c2n(C)c1=O)[C@H](c1ccc(Cl)o1)SCC3 [Example 1.1.1, (R)-10-(5-chlorofuran-2-yl)-1,3-dimethyl-5-phenyl-7,8-dihydro-1H-pyrimido[4′,5′:3,4]pyrrolo[2,1-c][1,4]thiazine-2,4(3H,10H)-dione]	0.63 µM
Cc1ccc([C@@H]2CCCn3c(-c4ccccc4)c4c(=O)n(C)c(=O)n(C)c4c32)o1 [Example 6.3, (R)-1,3-Dimethyl-10-(5-methylfuran-2-yl)-5-phenyl-7,8,9,10-tetrahydropyrimido[4,5-a]indolizine-2,4(1H,3H)-dione]	2.24 µM
Cc1ccc([C@H]2CCCn3c(-c4ccccc4)c4c(=O)n(C)c(=O)n(C)c4c32)o1 [Example 6.4, (S)-1,3-Dimethyl-10-(5-methylfuran-2-yl)-5-phenyl-7,8,9,10-tetrahydropyrimido[4,5-a]indolizine-2,4(1H,3H)-dione]	> 30 µM
Cn1c(=O)c2c(-c3cccc(C#N)c3)n3c(c2n(C)c1=O)[C@H](c1nc(Cl)cs1)CCC3 [Example 13a, (R)-3-(10-(4-chlorothiazol-2-yl)-1,3-dimethyl-2,4-dioxo-1,2,3,4,7,8,9,10-octahydropyrimido[4,5-a]indolizin-5-yl)benzonitrile]	0.07 µM
Cn1c(=O)c2c(-c3cccc(F)c3)n3c(c2n(C)c1=O)[C@H](c1nc(Cl)cs1)C[C@@H]3CO [Example 27a, (7R,9R)-9-(4-chlorothiazol-2-yl)-5-(3-fluorophenyl)-7-(hydroxymethyl)-1,3-dimethyl-8,9-dihydro-1H-pyrimido[4,5-a]pyrrolizine-2,4(3H,7H)-dione]	0.15 µM
